Series [1] has as its target T1, 5-hydroxytryptamine receptor 4 (Homo sapiens, UniProt Q13639). The series can be described thus: biochemical.
Description: Displacement of [3H]GR113808 from human 5HT4D receptor expressed in HEK293 cells after 30 mins by liquid scintillation counting
In series [2] the test system is Rattus norvegicus. The series can be described thus: Gastrointestinal toxicity in female Sprague-Dawley rat assessed as reduction in body weight at 30 mg/kg administered as repeated dose for 7 days measured up to 14 days. It is filed as organism-based. Also noted: dose 30 mg/kg. The settings on record: in vivo.
Series [3] deals with Rattus norvegicus. Nature of the series: Procognitive activity in Sprague-Dawley rat assessed as increase in acetylcholine level in prefrontal cortex at 5 mg/kg, sc after 3 hrs by brain microdialysis relative to control. In kind it is functional, organism-based. Also on record: dose 5 mg/kg.
Series [4] deals with Canis familiaris. The series can be described thus: Gastrointestinal toxicity in beagle dog assessed as decrease in food intake administered as repeated dose for 7 days measured up to 14 days. It is filed as organism-based, Canis lupus familiaris. To be noted: in vivo.
Series [5] has as its target T1, 5-hydroxytryptamine receptor 4. The series can be described thus: Agonist activity at human 5HT4D receptor expressed in HEK293 cells assessed as cAMP production after 30 mins by HTRF assay relative to 5HT. In kind it is functional, cell-based.
Series [6] concerns Rattus norvegicus. Nature of the series: Gastrointestinal toxicity in male Sprague-Dawley rat assessed as mucosal injury at 100 mg/kg administered as repeated dose for 7 days measured up to 14 days. The settings on record: in vivo. Also noted: dose 100 mg/kg. It is filed as organism-based.
The target of series [7] is T1, 5-hydroxytryptamine receptor 4. Nature of the series: biochemical. The source holds these as a separate data set.
Description: Displacement of [3H]GR113808 from human 5HT4A receptor expressed in HEK293 cells after 30 mins by liquid scintillation counting
For series [8] the target is unchanged.
Description: Agonist activity at human 5HT4B receptor expressed in HEK293 cells assessed as increase in cAMP production after 30 mins by HTRF assay
Series [9] shares this target. Nature of the series: Agonist activity at human 5HT4D receptor expressed in HEK293 cells assessed as cAMP production after 30 mins by HTRF assay. In kind it is functional, cell-based.
Series [10] can be described thus: Intrinsic clearance in human liver microsomes. It is filed as ADME, Microsome. The settings on record: read-out: CLH.
Series [11] deals with T2, 5-hydroxytryptamine receptor 4 (Rattus norvegicus, UniProt Q62758).
T2 sequence (Q62758 whole entry): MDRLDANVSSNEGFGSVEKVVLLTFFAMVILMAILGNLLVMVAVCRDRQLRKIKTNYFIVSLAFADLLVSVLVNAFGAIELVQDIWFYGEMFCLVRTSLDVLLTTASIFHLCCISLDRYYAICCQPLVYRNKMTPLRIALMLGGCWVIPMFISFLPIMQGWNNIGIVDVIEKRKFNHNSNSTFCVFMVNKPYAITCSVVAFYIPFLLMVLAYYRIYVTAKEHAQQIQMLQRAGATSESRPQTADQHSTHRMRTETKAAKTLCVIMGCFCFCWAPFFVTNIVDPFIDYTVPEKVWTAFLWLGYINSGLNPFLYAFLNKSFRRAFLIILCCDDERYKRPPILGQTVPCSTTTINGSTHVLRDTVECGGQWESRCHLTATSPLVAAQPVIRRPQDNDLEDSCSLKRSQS
Description: Agonist activity at rat 5HT4E receptor expressed in HEK293 cells assessed as increase in cAMP production after 30 mins by HTRF assay
Series [12] is described as follows: Apparent permeability from apical to basal side of RRCK cells at 2 uM after 2 hrs by transwell assay. It is filed as ADME, cell-based, Canis lupus familiaris, MDCKII-LE. The settings on record: dog, MDCK.
Series [13] has as its target 5-hydroxytryptamine receptor 4 (Rattus norvegicus) (UniProt Q62758). The series can be described thus: Agonist activity at 5HT4 receptor in rat oesophagus assessed as reversal of carbamylcholine-induced contraction at 10 uM incubated at 7 mins post carbamylcholine-challenge measured after 30 mins relative to 5HT. It is filed as functional.
Series [14] has as its system Rattus norvegicus. Nature of the series: Gastrointestinal toxicity in Sprague-Dawley rat assessed as decrease in food intake administered as repeated dose for 7 days measured up to 14 days. It is filed as organism-based. The settings on record: in vivo.
Series [15] relates to Rattus norvegicus. The series can be described thus: Gastrointestinal toxicity in female Sprague-Dawley rat assessed as mucosal injury at 30 mg/kg administered as repeated dose for 7 days measured up to 14 days. In kind it is organism-based. Also noted: dose 30 mg/kg. To be noted: in vivo.
The target of series [16] is T2, 5-hydroxytryptamine receptor 4. This is another data set of the same source.
Description: Agonist activity at rat 5HT4L receptor expressed in HEK293 cells assessed as increase in cAMP production after 30 mins by HTRF assay
In series [17] the test system is Rattus norvegicus. The series can be described thus: Gastrointestinal toxicity in male Sprague-Dawley rat assessed as reduction in body weight at 100 mg/kg administered as repeated dose for 7 days measured up to 14 days. In kind it is organism-based. Also on record: dose 100 mg/kg. To be noted: in vivo.
Series [18] in a line: Intrinsic clearance in dog liver microsomes. The settings on record: read-out: CLH. It is filed as ADME, Canis lupus familiaris, Microsome.
Series [19] deals with Canis familiaris. Nature of the series: Gastrointestinal toxicity in beagle dog assessed as emesis at 20 mg/kg administered as repeated dose for 7 days measured up to 14 days. It is filed as organism-based, Canis lupus familiaris. Also on record: dose 20 mg/kg. The settings on record: in vivo.
In series [20] the test system is Canis familiaris. Nature of the series: Cardiotoxicity in beagle dog assessed as increase in systolic blood pressure at 0.1 mg/kg administered as repeated dose for 7 days measured up to 1 month. In kind it is toxicity, organism-based, Canis lupus familiaris, Artery. Also on record: dose 0.1 mg/kg. To be noted: in vivo, 168 h.
A short description of series [21]: Ratio of free drug concentration in brain to free drug concentration in plasma in sc dosed Sprague-Dawley rat. In kind it is ADME, organism-based. The settings on record: read-out: K(p,uu,brain).
Series [22] in a line: Oral bioavailability in rat. In kind it is ADME, organism-based. To be noted: in vivo.
The test system of a further series is MDR1. Nature of the series: in vitro. The settings on record: dog, MDCK-MDR1.
The nature of series [23]: Clearance in iv dosed dog. It is filed as ADME, organism-based, Canis lupus familiaris. To be noted: in vivo.
Series [24] in a line: Intrinsic clearance in rat liver microsomes. It is filed as ADME, Microsome. The settings on record: read-out: CLH.
Series [25] addresses T1, 5-hydroxytryptamine receptor 4. The series can be described thus: biochemical. This is another data set of the same source.
Description: Displacement of [3H]GR113808 from human 5HT4B receptor expressed in HEK293 cells after 30 mins by liquid scintillation counting
Series [26] is described as follows: Oral bioavailability in dog. To be noted: in vivo. It is filed as ADME, organism-based, Canis lupus familiaris.
In series [27] the target is T1, 5-hydroxytryptamine receptor 4. This is another data set of the same source.
Description: Agonist activity at human 5HT4A receptor expressed in HEK293 cells assessed as increase in cAMP production after 30 mins by HTRF assay
Another series deals with Brain. The series can be described thus: Free AUC (0 to 4 hrs) in sc dosed Sprague-Dawley rat brain by LC-MS/MS analysis. To be noted: in vivo. In kind it is ADME, organism-based.
For series [28], the system named is Rattus norvegicus. Nature of the series: Receptor occupancy of 5HT4 receptor in Sprague-Dawley rat brain at 5 mg/kg, sc up to 4 hrs. It is filed as functional. The settings on record: route subcutaneous.
In series [29] the test system is Rattus norvegicus. Nature of the series: Displacement of [3H]SB207145 from 5HT4 receptor in sc dosed Sprague-Dawley rat striatal membrane incubated for 45 mins prior to [3H]SB207145-adminsitration measured after 15 mins. In kind it is functional, organism-based. The settings on record: Striatum.
The test system of series [30] is Canis familiaris. Nature of the series: Neurotoxicity in beagle dog assessed as convulsions at 30 mg/kg administered as repeated dose for 7 days measured up to 14 days. In kind it is toxicity, organism-based, Canis lupus familiaris. Also on record: dose 30 mg/kg. The settings on record: in vivo.
Series [31] deals with T1, 5-hydroxytryptamine receptor 4. This is another data set of the same source.
Description: Agonist activity at human 5HT4E receptor expressed in HEK293 cells assessed as increase in cAMP production after 30 mins by HTRF assay
Series [32] is described as follows: Clearance in iv dosed rat. The settings on record: in vivo. It is filed as ADME, organism-based.
Series [33] concerns the target T2, 5-hydroxytryptamine receptor 4. This is another data set of the same source.
Description: Agonist activity at rat 5HT4S receptor expressed in HEK293 cells assessed as increase in cAMP production after 30 mins by HTRF assay
Series [34] concerns the target T1, 5-hydroxytryptamine receptor 4. Nature of the series: biochemical. The source holds these as a separate data set.
Description: Displacement of [3H]GR113808 from human 5HT4E receptor expressed in CHO cells after 30 mins by liquid scintillation counting
For another series, the system named is Plasma. Nature of the series: Free AUC (0 to 4 hrs) in sc dosed Sprague-Dawley rat plasma by LC-MS/MS analysis. It is filed as ADME, organism-based. The settings on record: in vivo.
Series [35] concerns the target T2, 5-hydroxytryptamine receptor 4. The source holds these as a separate data set.
Description: Displacement of [3H]GR113808 from 5HT4 receptor in rat striatal membrane after 30 mins by liquid scintillation counting
In another series the target is CYP2D6 (Homo sapiens, UniProt P10635). The series can be described thus: Inhibition of CYP2D6 in human liver microsomes using dextromethorphan as substrate at 3 uM. To be noted: probe dextromethorphan. It is filed as ADME, Microsome.
Sequence of CYP2D6 (P10635 whole entry): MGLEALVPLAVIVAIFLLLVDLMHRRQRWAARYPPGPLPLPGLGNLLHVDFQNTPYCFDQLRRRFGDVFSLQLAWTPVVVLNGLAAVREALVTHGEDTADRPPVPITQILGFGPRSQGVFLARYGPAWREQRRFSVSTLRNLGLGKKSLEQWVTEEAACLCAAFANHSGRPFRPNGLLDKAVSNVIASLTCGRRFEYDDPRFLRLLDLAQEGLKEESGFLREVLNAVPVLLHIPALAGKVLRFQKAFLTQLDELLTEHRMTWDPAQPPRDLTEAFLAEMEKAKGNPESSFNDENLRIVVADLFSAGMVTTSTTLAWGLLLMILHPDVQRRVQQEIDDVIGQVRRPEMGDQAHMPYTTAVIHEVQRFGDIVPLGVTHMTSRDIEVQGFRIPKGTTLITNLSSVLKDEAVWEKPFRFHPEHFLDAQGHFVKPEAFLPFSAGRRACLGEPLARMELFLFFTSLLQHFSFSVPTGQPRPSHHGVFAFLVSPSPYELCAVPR

Experimental findings from ChEMBL document CHEMBL2176907, “Identification of multiple 5-HT₄ partial agonist clinical candidates for the treatment of Alzheimer's disease” (J Med Chem, 2012) are described below.

Active and inactive are the calls of the source. The rule behind the calls is not given here.

T1 sequence (Q13639 whole entry): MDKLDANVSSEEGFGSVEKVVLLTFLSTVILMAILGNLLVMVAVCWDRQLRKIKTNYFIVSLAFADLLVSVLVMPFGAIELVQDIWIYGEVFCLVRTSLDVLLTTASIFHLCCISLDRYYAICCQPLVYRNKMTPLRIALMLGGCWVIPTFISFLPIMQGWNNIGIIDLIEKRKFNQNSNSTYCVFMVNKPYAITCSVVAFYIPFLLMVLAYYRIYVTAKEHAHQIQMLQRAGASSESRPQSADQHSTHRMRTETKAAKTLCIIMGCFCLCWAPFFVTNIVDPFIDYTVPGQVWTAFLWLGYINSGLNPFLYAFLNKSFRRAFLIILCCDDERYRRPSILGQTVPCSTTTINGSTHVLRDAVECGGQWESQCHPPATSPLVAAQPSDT
Sequence of 5-hydroxytryptamine receptor 4 (Rattus norvegicus) (Q62758 whole entry): as the sequence (Q62758 whole entry) above
Description for MDR1: Efflux ratio of permeability from basal to apical to apical to basal side of MDCK cells expressing MDR1 at 2 uM after 5 hrs by transwell assay

As to `CC(C)n1c(=O)n(C(=O)NCC2CCN(CC3(O)CCOCC3)CC2)c2cc(F)ccc21`, the Ki in [1] came to 1.7 nM; in series [7] it was 4.4 nM; in series [25] it was 5.5 nM; in series [34], 4.9 nM; in [35], 1.5 nM. Moreover, the Activity result is “Toxic” in the series with Rattus norvegicus [2]; “Toxic” in the series with Canis familiaris [4]; “Toxic” in the series with Rattus norvegicus [6]; 70% in series [13]; “Toxic” in the series on Rattus norvegicus [14]; “Toxic” in the series with Rattus norvegicus [15]. Further, the Activity entry is “Toxic” with Rattus norvegicus [17]; “Toxic” in the series on Canis familiaris [19]; “Toxic” in the series with Canis familiaris [20]; “Dose-dependent effect” with Rattus norvegicus [29]; “Toxic” with Canis familiaris [30]. The result in the series with Rattus norvegicus [3] was Active. For the same molecule, the Emax in series [5] stood at 86%. Also, the EC50 in [8] is 1.2 nM; in [9] it was 0.9 nM; in series [11], 1.59 nM; in series [16], 0.96 nM; in [27], 0.38 nM; in series [31] it was 0.98 nM. The EC50 in [33] is 0.9 nM. Moreover, the CLint scaled in [10] was 24.3 mL/min/kg; in [18], less than 5.6 mL/min/kg; in series [24], 45.2 mL/min/kg. In addition, the Papp A→B at 2 h, 2 µM in [12] was 21.9 ×10⁻⁶ cm/s. For the same molecule, in [21], the Kp uu is 1.6. For the same molecule, the bioavailability in series [22] amounted to 40%; in [26] it was 100%. Moreover, the efflux ratio at 5 h, 2 µM in the series on MDR1 worked out at 1.41. In addition, the clearance in [23] worked out at 40 mL/min/kg; in series [32], 12.6 mL/min/kg. Further, the fAUC with Brain turned out to be 0.0443 µM·h; with Plasma it was 0.0276 µM·h. The molecule also returned an Occ in the series on Rattus norvegicus [28] greater than 90%.
For `CCCCN1CCC(COc2noc3cccc(OCC(C)(C)C)c23)CC1`, the Ki in series [1] came out at 5.2 nM. Besides, the Emax in series [5] stood at 95%. For the same molecule, in [9], the EC50 came out at 6.3 nM. For the same molecule, the inhibition at 3 µM on CYP2D6 was 93%.
Consider `O[C@@H]1CC[C@@H](Oc2cccc3onc(OCC4CCN(CC5(O)CCOCC5)CC4)c23)C1`, for which, in [1], the Ki amounted to 0.5 nM. In addition, the Emax in [5] turned out to be 28%. In addition, in [9], the EC50 was 0.4 nM. In addition, the CLint scaled in series [10] is 56 mL/min/kg. Besides, the Papp A→B at 2 h, 2 µM in series [12] worked out at 15 ×10⁻⁶ cm/s. In the series with MDR1, the efflux ratio at 5 h, 2 µM came to 2.2. On CYP2D6, the inhibition at 3 µM was determined as 37%.
Regarding `CCCCN1CCC(COc2noc3cccc(OCC4CCC4)c23)CC1`, at CYP2D6, at 3 µM the inhibition was 93%.
